Assay results reported in publication PMC2374418, “A prolonged methoxymorpholino doxorubicin (PNU-152243 or MMRDX) infusion schedule in patients with solid tumours: a phase 1 and pharmacokinetic study” (British Journal of Cancer, 2000).

Legend:
[1] = test system: patients with various intrinsically anthracycline resistant solid tumours; settings: 1998, cited from earlier work
[2] = Pharmacokinetics in plasma and urine, first cycle, non-compartmental analysis
Text: (§1) Nowadays, anthracyclines play an important role in chemothera- peutic treatment of a wide variety of tumour types. The clinical use of anthracyclines is limited by their toxicity profile, especially irreversible, cumulative dose-related cardiotoxicity, and by intrinsic or acquired resistance of tumours cells. Mechanisms of this resistance consist of several pathways, such as overexpression of drug efflux pumps (i.e. P-glycoprotein), decrease in topoiso- merase II enzyme levels, and increase in cellular detoxifying capacity (Kaye and Merry, 1985; Deffie et al, 1989; de Jong et al, 1990; Ford and Hait, 1990; Roninson, 1997). Morpholinyl anthracyclines, such as methoxymorpholino doxorubicin (MMRDX or PNU-152243), were synthesized in search for new anthracyclines with at least partially novel modes of action, including activity on multidrug-resistant (MDR) tumours. MMRDX is a novel doxorubicin derivative in which the nitrogen atom of the daunosamine is enclosed in a methoxymor- pholino ring (Figure 1). […] The working mechanism of morpholinyl anthracyclines appears to be different from other anthracyclines. Morpholinyl anthracyclines inhibit ribosomal gene transcription as well as topoisomerase I-mediated DNA-cleavage (Wassermann et al, 1988, 1990). […] Metabolic conversion of MMRDX by human liver microsomes and NADPH potentiated the cytotoxicity in an ovarian carcinoma cell line (Lau et al, 1994). […] Therefore, we decided to perform a phase I study with MMRDX administered as a 3 h infusion every 4 weeks in order to try to increase the MTD as compared with bolus administration. In addition, we assessed pharmacokinetics of prolonged MMRDX-infusion. A prolonged methoxymorpholino doxorubicin (PNU- 152243 or MMRDX) infusion schedule in patients with solid tumours: a phase 1 and pharmacokinetic study E Fokkema1 , J Verweij2 , AT van Oosterom3 , DRA Uges1 , R Spinelli4 , O Valota4 , EGE de Vries1 and HJM Groen1 1 Department of Pulmonology, Department of Pharmacy, Department of Internal Medicine, University Hospital Groningen, PO Box 30.001, 9700 RB Groningen, The Netherlands; 2 Rotterdam Cancer Institute and University Hospital, Rotterdam, The Netherlands; 3 University Hospital Leuven, Belgium; 4 Pharmacia & Upjohn, Milan, Italy Summary The aim of this phase I study was to assess feasibility, pharmacokinetics and toxicity of methoxymorpholino doxorubicin (MMRDX or PNU-152243) administered as a 3 h intravenous infusion once every 4 weeks. […] The first cohort of patients was treated with 1 mg m-2 of MMRDX. The next cohorts received 1.25 mg m-2 and 1.5 mg m-2 respectively. […] (c) 2000 Cancer Research Campaign Keywords: methoxymorpholino doxorubicin; pharmacokinetics; phase I study 767 Received 6 January 1999 Revised 2 August 1999 Accepted 25 August 1999 Correspondence to: EGE de Vries British Journal of Cancer (2000) 82(4), 767-771 (c) 2000 Cancer Research Campaign DOI: 10.1054/ bjoc.1999.0996, available online at http://www.idealibrary.com on PATIENTS AND METHODS Patients The study was performed between December 1994 and June 1996. Patients with intrinsic anthracycline-resistant tumours were accrued in three different centres in Belgium and The Netherlands.

[3] = test system: various tumour cell lines, including MDR tumour cell lines; parameters: method as in ref Danesi et al, 1993; Kuhl et al, 1993; van der Graaf et al, 1995; Bakker et al, 1997; settings: ref Danesi et al, 1993, Kuhl et al, van der Graaf et al, 1995, Bakker et al, 1997; cited from earlier work
[4] = test system: intrinsically anthracycline-resistant tumours; test: Tumour response according to WHO criteria; format: in vivo, human; settings: 3 h i.v. infusion, 1.0-1.5 mg m-2, 13 evaluable patients
Text: Nowadays, anthracyclines play an important role in chemothera- peutic treatment of a wide variety of tumour types. The clinical use of anthracyclines is limited by their toxicity profile, especially irreversible, cumulative dose-related cardiotoxicity, and by intrinsic or acquired resistance of tumours cells. Mechanisms of this resistance consist of several pathways, such as overexpression of drug efflux pumps (i.e. P-glycoprotein), decrease in topoiso- merase II enzyme levels, and increase in cellular detoxifying capacity (Kaye and Merry, 1985; Deffie et al, 1989; de Jong et al, 1990; Ford and Hait, 1990; Roninson, 1997). Morpholinyl anthracyclines, such as methoxymorpholino doxorubicin (MMRDX or PNU-152243), were synthesized in search for new anthracyclines with at least partially novel modes of action, including activity on multidrug-resistant (MDR) tumours. MMRDX is a novel doxorubicin derivative in which the nitrogen atom of the daunosamine is enclosed in a methoxymor- pholino ring (Figure 1). […] The working mechanism of morpholinyl anthracyclines appears to be different from other anthracyclines. Morpholinyl anthracyclines inhibit ribosomal gene transcription as well as topoisomerase I-mediated DNA-cleavage (Wassermann et al, 1988, 1990). […] In addition, we assessed pharmacokinetics of prolonged MMRDX-infusion. […]

[5] = test system: patients; parameters: method as in Vasey et al, 1995; settings: ref Vasey et al, 1995, cited from earlier work
[6] = test system: rats; parameters: method as in Danesi et al, 1993; settings: ref Danesi et al, 1993; cited from earlier work
[7] = test system: patients with intrinsic anthracycline-resistant tumours; test: Phase I toxicity (CTC grading), MMRDX as 3 h intravenous infusion once every 4 weeks
Text: as §1

COc1cccc2c1C(=O)c1c(O)c3c(c(O)c1C2=O)C[C@@](O)(C(=O)CO)C[C@@H]3O[C@H]1C[C@H](N2CCO[C@H](OC)C2)[C@H](O)[C@H](C)O1 [MMRDX, methoxymorpholino doxorubicin]
Grade IV neutropenia ([1]; 1.5 mg m-2 bolus every 4 weeks, ref Bakker et al): 9 % of administered cycles | Tumour responses ([1]; NSCLC, ref Bakker et al): one partial response in one out of 17 NSCLC | Plasma clearance ([1]; bolus, ref Bakker et al): 620 ml min-1 m-2 | t1/2 of the elimination phase ([1]; bolus, ref Bakker et al): 49 h | Patients taken off study due to a decrease in LVEF ([1]; phase II study, ref Vasey et al, 1995, Bakker et al): two patients | % Dose in urine, median (range) ([2]; 1.0 mg m-2 (n = 3)): 1.6 (0.53-1.74) % | % Dose in urine, median (range) ([2]; 1.25 mg m-2 (n = 6)): 2.1 (0.35-2.6) % | Cl (plasma clearance), median (range) ([2]; 1.25 mg m-2, n = 4): 649.0 (506.3-812.3) ml min-1 m-2 | Vss, median (range) ([2]; 1.25 mg m-2, n = 4): 2891.5 (1742-3371) l m-2 | Vz, median (range) ([2]; 1.25 mg m-2, n = 4): 3942.5 (1997-4540) l m-2 | t1/2 z (printed 'tA z'), median (range) ([2]; 1.25 mg m-2, n = 4): 60.9 (45.6-88.8) h | % Dose in urine, median (range) ([2]; 1.5 mg m-2 (n = 3)): 2.47 (1.71-2.49) % | Cl (plasma clearance), median (range) ([2]; 1.5 mg m-2, n = 2): 741.2 (659-823.2) ml min-1 m-2 | Vss, median (range) ([2]; 1.5 mg m-2, n = 2): 2693.0 (2585-2801) l m-2 | Vz, median (range) ([2]; 1.5 mg m-2, n = 2): 2908.5 (2574-3243) l m-2 | t1/2 z (printed 'tA z'), median (range) ([2]; 1.5 mg m-2, n = 2): 46.5 (36.1-56.9) h | Renal excretion ([2]; 3 h i.v. infusion): negligible | Correlation between AUC0-tz or Cmax and nadirs of haemoglobin, platelets, leucocytes and neutrophils ([2]; pharmacodynamic analysis, linear regression, first cycle): no correlation | AUC 0-tz, median (range) ([2]; plasma, 1.0 mg m-2 (n = 3)): 9.4 (8.3-18.3) ng h ml-1 | Cmax, median (range) ([2]; plasma, 1.0 mg m-2 (n = 3)): 2.8 (1.8-6.2) ng ml-1 | Cmax, one patient with high value ([2]; plasma, 1 mg m-2, one patient): 6.17 ng/mL | AUC 0-tz, median (range) ([2]; plasma, 1.25 mg m-2 (n = 6)): 15.1 (10.1-30.4) ng h ml-1 | Cmax, median (range) ([2]; plasma, 1.25 mg m-2 (n = 6)): 2.3 (1.1-2.7) ng ml-1 | AUC 0-tz, median (range) ([2]; plasma, 1.5 mg m-2 (n = 3)): 21.4 (5.7-26.9) ng h ml-1 | Cmax, median (range) ([2]; plasma, 1.5 mg m-2 (n = 3)): 1.4 (1.2-2.1) ng ml-1 | Cmax, all other patients ([2]; plasma, all dose levels): around 2.0 ng ml-1 | AUC0-infinity from non-compartmental analysis ([2]; similar for all dose levels, seven patients): around 30 ng h ml-1 | Cytotoxic activity in vitro [3]: potent cytotoxic activity | Tumour responses [4]: No tumour response | Grade IV neutropenia ([5]; 1.5 mg m-2 bolus every 3 weeks): 14 % of administered cycles | Dose-limiting toxicity (DLT) ([5]; bolus injection every 3 weeks): myelosuppression (neutropenia and thrombocytopenia) | Maximum tolerated dose (MTD) ([5]; bolus injection every 3 weeks): 1.5 mg m-2 | Plasma clearance ([5]; bolus): 650 ml min-1 m-2 | t1/2 after a rapid distribution phase ([5]; bolus): 40 h | Tumour responses ([5]; head and neck (one out of three), cervical cancer (one out of five), colorectal cancer (two out of 20)): four responses | Cardiotoxicity in rats [6]: no substantial cardiotoxicity | Non-haematological toxicity ([7]; 1 mg m-2): did not exceed CTC grade II | Median (range) nadir of leucocytes over all evaluable cycles ([7]; 1.0 mg m-2): 6.0 (3.9-15.1) x 109 l-1 | Median (range) nadir of neutrophils over all evaluable cycles ([7]; 1.0 mg m-2): 3.3 (2.4-12.7) x 109 l-1 | Median (range) nadir of platelets over all evaluable cycles ([7]; 1.0 mg m-2): 197 (130-356) x 109 1-1 | Neutrophils, CTC grade III toxicity ([7]; 1.0 mg m-2, 7 cycles): 0 % of total number of cycles | Neutrophils, CTC grade IV toxicity ([7]; 1.0 mg m-2, 7 cycles): 0 % of total number of cycles | Leucocytes, CTC grade III toxicity ([7]; 1.0 mg m-2, 8 cycles): 0 % of total number of cycles | Leucocytes, CTC grade IV toxicity ([7]; 1.0 mg m-2, 8 cycles): 0 % of total number of cycles | Platelets, CTC grade III toxicity ([7]; 1.0 mg m-2, 8 cycles): 0 % of total number of cycles | Platelets, CTC grade IV toxicity ([7]; 1.0 mg m-2, 8 cycles): 0 % of total number of cycles | Median (range) nadir of leucocytes over all evaluable cycles ([7]; 1.25 mg m-2): 2.7 (1.0-10.4) x 109 l-1
